{"source": "patent US20220401439A1", "about": "“INTRANASAL PHARMACEUTICAL COMPOSITIONS OF CGRP INHIBITORS” (Biohaven Pharmaceutical Holding Company Ltd., priority 2019, published 2022)", "key": {"logD of drug substance": {"experiment": "logD of drug substance", "type": "physicochemical", "settings": "mono-hydrochloride salt form"}, "[1]": {"system": "patients receiving acute treatment of migraine", "experiment": "Phase 2/3 trial BHV3500-201 (Study 201), efficacy in acute treatment of migraine", "type": "in vivo, human"}, "[2]": {"settings": "5 mg single dose, mITT subjects, Overall"}, "[3]": {"settings": "5 mg single dose, mITT, Prophylactic migraine medication use: No"}, "[4]": {"settings": "5 mg single dose, mITT, Prophylactic migraine medication use: Yes"}, "[5]": {"settings": "10 mg single dose, mITT subjects, Overall"}, "[6]": {"settings": "10 mg single dose, mITT, Prophylactic migraine medication use: No"}, "[7]": {"settings": "10 mg single dose, mITT, Prophylactic migraine medication use: Yes"}, "[8]": {"settings": "10 mg single intranasal dose, p < 0.05"}, "[9]": {"settings": "20 mg single dose, mITT subjects, Overall"}, "[10]": {"settings": "20 mg single dose, mITT, Prophylactic migraine medication use: No"}, "[11]": {"settings": "20 mg single dose, mITT, Prophylactic migraine medication use: Yes"}, "[12]": {"settings": "20 mg single intranasal dose, p < 0.05"}, "[13]": {"settings": "zavegepant 5 mg vs placebo, mITT, CMH weighting"}, "[14]": {"settings": "zavegepant 5 mg vs placebo, subjects with functional disability at onset, CMH weighting"}, "[15]": {"settings": "zavegepant 5 mg vs placebo, subjects with symptom present at onset, CMH weighting"}, "[16]": {"settings": "zavegepant 5 mg, mITT subjects with functional disability at on-study migraine attack onset"}}, "note": "Marks after values point to notes of the source that are not given here.", "data": [{"smiles": "Cc1cc(C[C@@H](NC(=O)N2CCC(c3cc4ccccc4[nH]c3=O)CC2)C(=O)N2CCN(C3CCN(C)CC3)CC2)cc2cn[nH]c12", "note": "[Zavegepant, (R)—N-(3-(7-methyl-1H-indazol-5-yl)-1-(4-(1-methylpiperidin-4-yl)piperazin-1-yl)-1-oxopropan-2-yl)-4-(2-oxo-1,2-dihydroquinolin-3-yl)piperidine-1-carboxamide]", "values": [{"measurement": "logD", "setting": "logD of drug substance", "result": 1.21}, {"measurement": "Pain Relief at 15 Minutes Post-Dose, (%) of subjects", "setting": "[1]; [2]", "result": "(14.2) %"}, {"measurement": "Pain Relief at 15 Minutes Post-Dose, n/N", "setting": "[1]; [2]", "result": "55/387"}, {"measurement": "Pain Relief at 15 Minutes Post-Dose, Stratified percentage difference (BHV-3500-Placebo)", "setting": "[1]; 5 mg single dose, mITT subjects, Overall, CMH weighting", "result": 4.2, "unit": "%"}, {"measurement": "Pain Relief at 15 Minutes Post-Dose, (%) of subjects", "setting": "[1]; [3]", "result": "(14.7) %"}, {"measurement": "Pain Relief at 15 Minutes Post-Dose, Percentage difference (BHV-3500-Placebo)", "setting": "[1]; [3]", "result": 4.6, "unit": "%"}, {"measurement": "Pain Relief at 15 Minutes Post-Dose, n/N", "setting": "[1]; [3]", "result": "49/333"}, {"measurement": "Pain Relief at 15 Minutes Post-Dose, (%) of subjects", "setting": "[1]; [4]", "result": "(11.1) %"}, {"measurement": "Pain Relief at 15 Minutes Post-Dose, Percentage difference (BHV-3500-Placebo)", "setting": "[1]; [4]", "result": 1.9, "unit": "%"}, {"measurement": "Pain Relief at 15 Minutes Post-Dose, n/N", "setting": "[1]; [4]", "result": "8/54"}, {"measurement": "2 Hour Endpoint Freedom from MBS (Most Bothersome Symptom)", "setting": "[1]; 5 mg single intranasal dose", "result": 39.0, "unit": "%"}, {"measurement": "2 Hour Endpoint Pain Freedom", "setting": "[1]; 5 mg single intranasal dose", "result": 19.6, "unit": "%"}, {"measurement": "Pain Relief at 15 Minutes Post-Dose, (%) of subjects", "setting": "[1]; [5]", "result": "(18.2) %"}, {"measurement": "Pain Relief at 15 Minutes Post-Dose, n/N", "setting": "[1]; [5]", "result": "71/331"}, {"measurement": "Pain Relief at 15 Minutes Post-Dose, Stratified percentage difference (BHV-3500-Placebo)", "setting": "[1]; 10 mg single dose, mITT subjects, Overall, CMH weighting", "result": 8.2, "unit": "%"}, {"measurement": "Pain Relief at 15 Minutes Post-Dose, (%) of subjects", "setting": "[1]; [6]", "result": "(17.3) %"}, {"measurement": "Pain Relief at 15 Minutes Post-Dose, Percentage difference (BHV-3500-Placebo)", "setting": "[1]; [6]", "result": 7.2, "unit": "%"}, {"measurement": "Pain Relief at 15 Minutes Post-Dose, n/N", "setting": "[1]; [6]", "result": "59/341"}, {"measurement": "Pain Relief at 15 Minutes Post-Dose, (%) of subjects", "setting": "[1]; [7]", "result": "(24.0) %"}, {"measurement": "Pain Relief at 15 Minutes Post-Dose, Percentage difference (BHV-3500-Placebo)", "setting": "[1]; [7]", "result": 14.7, "unit": "%"}, {"measurement": "Pain Relief at 15 Minutes Post-Dose, n/N", "setting": "[1]; [7]", "result": "12/50"}, {"measurement": "2 Hour Endpoint Freedom from MBS (Most Bothersome Symptom)", "setting": "[1]; [8]", "result": 41.9, "unit": "%*"}, {"measurement": "2 Hour Endpoint Pain Freedom", "setting": "[1]; [8]", "result": 22.5, "unit": "%*"}, {"measurement": "return to normal function", "setting": "[1]; 20 mg", "result": "as early as 30 minutes"}, {"measurement": "Pain Relief at 15 Minutes Post-Dose, (%) of subjects", "setting": "[1]; [9]", "result": "(14.7) %"}, {"measurement": "Pain Relief at 15 Minutes Post-Dose, n/N", "setting": "[1]; [9]", "result": "59/402"}, {"measurement": "Pain Relief at 15 Minutes Post-Dose, Stratified percentage difference (BHV-3500-Placebo)", "setting": "[1]; 20 mg single dose, mITT subjects, Overall, CMH weighting", "result": 4.7, "unit": "%"}, {"measurement": "Pain Relief at 15 Minutes Post-Dose, (%) of subjects", "setting": "[1]; [10]", "result": "(13.3) %"}, {"measurement": "Pain Relief at 15 Minutes Post-Dose, Percentage difference (BHV-3500-Placebo)", "setting": "[1]; [10]", "result": 3.2, "unit": "%"}, {"measurement": "Pain Relief at 15 Minutes Post-Dose, n/N", "setting": "[1]; [10]", "result": "46/345"}, {"measurement": "Pain Relief at 15 Minutes Post-Dose, (%) of subjects", "setting": "[1]; [11]", "result": "(22.3) %"}, {"measurement": "Pain Relief at 15 Minutes Post-Dose, Percentage difference (BHV-3500-Placebo)", "setting": "[1]; [11]", "result": 13.5, "unit": "%"}, {"measurement": "Pain Relief at 15 Minutes Post-Dose, n/N", "setting": "[1]; [11]", "result": "13/57"}, {"measurement": "2 Hour Endpoint Freedom from MBS (Most Bothersome Symptom)", "setting": "[1]; [12]", "result": 42.5, "unit": "%*"}, {"measurement": "2 Hour Endpoint Pain Freedom", "setting": "[1]; [12]", "result": 23.1, "unit": "%*"}, {"measurement": "onset of pain relief", "setting": "[1]; 5, 10, and 20 mg single dose, stratified CMH tests, mITT subjects", "result": "pain relief as early as 15 minutes post-dose"}, {"measurement": "durability of benefits (sustained pain freedom and pain relief 2 to 24 and 2 to 48 hours)", "setting": "[1]; 5, 10 and 20 mg (pain relief 2 to 48: 5 and 10 mg), nominal p<0.05", "result": "durable and sustained without rescue medication out to 48 hours"}, {"measurement": "pain relief and return to normal function at 2 hours", "setting": "[1]; 10 and 20 mg doses", "result": "therapeutic benefits"}, {"measurement": "comparison to placebo on co-primary endpoints of pain freedom and freedom from MBS at 2 hours", "setting": "[1]; 10 and 20 mg, single dose, p<0.05", "result": "statistically superior"}, {"measurement": "comparison to placebo on multiple secondary endpoints demonstrating early activity", "setting": "[1]; nominal p<0.05", "result": "superior to placebo"}, {"measurement": "Pain relief at 2 hours postdose, n/N (%)", "setting": "[1]; zavegepant 5 mg intranasal single dose, mITT subjects", "result": "(57.9) %"}, {"measurement": "Pain relief at 30 minutes postdose, Stratified Percentage Difference (Zavegepant-Placebo)", "setting": "[1]; [13]", "result": 1.9, "unit": "%"}, {"measurement": "Pain relief at 60 minutes postdose, Stratified Percentage Difference (Zavegepant-Placebo)", "setting": "[1]; [13]", "result": 5.1, "unit": "%"}, {"measurement": "Rescue medication use within 24 hours postdose, Stratified Percentage Difference (Zavegepant-Placebo)", "setting": "[1]; [13]", "result": "−2.4", "unit": "%"}, {"measurement": "Sustained pain freedom from 2 to 24 hours postdose, Stratified Percentage Difference (Zavegepant-Placebo)", "setting": "[1]; [13]", "result": 5.3, "unit": "%"}, {"measurement": "Sustained pain freedom from 2 to 48 hours postdose, Stratified Percentage Difference (Zavegepant-Placebo)", "setting": "[1]; [13]", "result": 5.5, "unit": "%"}, {"measurement": "Sustained pain relief from 2 to 24 hours postdose, Stratified Percentage Difference (Zavegepant-Placebo)", "setting": "[1]; [13]", "result": 8.0, "unit": "%"}, {"measurement": "Sustained pain relief from 2 to 48 hours postdose, Stratified Percentage Difference (Zavegepant-Placebo)", "setting": "[1]; [13]", "result": 7.4, "unit": "%"}, {"measurement": "Pain relief at 2 hours postdose, Stratified Percentage Difference (Zavegepant-Placebo)", "setting": "[1]; zavegepant 5 mg vs placebo, mITT, stratified by prophylactic migraine medication use, CMH weighting", "result": 4.2, "unit": "%"}, {"measurement": "Return to normal function at 30 minutes postdose, Stratified Percentage Difference (Zavegepant-Placebo)", "setting": "[1]; [14]", "result": 3.4, "unit": "%"}, {"measurement": "Return to normal function at 60 minutes postdose, Stratified Percentage Difference (Zavegepant-Placebo)", "setting": "[1]; [14]", "result": 5.5, "unit": "%"}, {"measurement": "Return to normal function at 2 hours postdose, Stratified Percentage Difference (Zavegepant-Placebo)", "setting": "[1]; [14]", "result": 4.3, "unit": "%"}, {"measurement": "Pain relapse from 2 to 48 hours postdose, Stratified Percentage Difference (Zavegepant-Placebo)", "setting": "[1]; zavegepant 5 mg vs placebo, subjects with pain freedom at 2 hours postdose, CMH weighting", "result": "−18.9", "unit": "%"}, {"measurement": "Nausea freedom at 2 hours postdose, Stratified Percentage Difference (Zavegepant-Placebo)", "setting": "[1]; [15]", "result": 1.8, "unit": "%"}, {"measurement": "Phonophobia freedom at 2 hours postdose, Stratified Percentage Difference (Zavegepant-Placebo)", "setting": "[1]; [15]", "result": 10.1, "unit": "%"}, {"measurement": "Photophobia freedom at 2 hours postdose, Stratified Percentage Difference (Zavegepant-Placebo)", "setting": "[1]; [15]", "result": 4.6, "unit": "%"}, {"measurement": "Pain relief at 30 minutes postdose, n/N (%)", "setting": "[1]; zavegepant 5 mg, mITT subjects", "result": "(26.6) %"}, {"measurement": "Pain relief at 60 minutes postdose, n/N (%)", "setting": "[1]; zavegepant 5 mg, mITT subjects", "result": "(47.0) %"}, {"measurement": "Rescue medication use within 24 hours postdose, n/N (%)", "setting": "[1]; zavegepant 5 mg, mITT subjects", "result": "(24.9) %"}, {"measurement": "Sustained pain freedom from 2 to 24 hours postdose, n/N (%)", "setting": "[1]; zavegepant 5 mg, mITT subjects", "result": "(14.2) %"}, {"measurement": "Sustained pain freedom from 2 to 48 hours postdose, n/N (%)", "setting": "[1]; zavegepant 5 mg, mITT subjects", "result": "(12.9) %"}, {"measurement": "Sustained pain relief from 2 to 24 hours postdose, n/N (%)", "setting": "[1]; zavegepant 5 mg, mITT subjects", "result": "(43.7) %"}, {"measurement": "Sustained pain relief from 2 to 48 hours postdose, n/N (%)", "setting": "[1]; zavegepant 5 mg, mITT subjects", "result": "(40.1) %"}, {"measurement": "Return to normal function at 30 minutes postdose, n/N (%)", "setting": "[1]; [16]", "result": "(8.8) %"}, {"measurement": "Return to normal function at 60 minutes postdose, n/N (%)", "setting": "[1]; [16]", "result": "(22.6) %"}]}]}
